{"source": "patent US7993668B2", "about": "“Nutrient composition and composition for prevention/mitigation of digestive tract depression” (Ajinomoto Co., Inc., priority 2004, dated 2011)", "system": "male rat", "experiment": "Onset of diarrhea due to intragastric administration of an elemental diet in fasted rats (stool state ranked 1-4)", "format": "in vivo", "description": "According to a conventional method, under pentobarbital anesthesia, a catheter for elemental diet administration was inserted by operation in the stomach of a male rat (body weight about 270 g), and a recovery period of one week was given. For breeding, a regular rat feed and tap water were given, and free intake was allowed. After confirmation of recovery, the rat was fasted three nights to induce lower gastrointestinal function. The fasting schedule on the day before operation, the operation day and the day after operation in the case of surgery patients was imitated.\nOn the day of the test, the rats were divided into 3 groups, each rat was moved to a separate observation cage, and the onset of diarrhea due to the administration of an elemental diet shown below was observed. First, one pack (80 g) of elemental diet having the composition shown in Table 1 was dissolved in water (300 cc) and prepared to show 1 kcal/cc, which was used as elemental diet 1. Three groups of an elemental diet 1 administration group as a control, an elemental diet 2 administration group, to which 1.0 w/v % (0.88 w/v % as free glutamic acid) of sodium glutamate (MSG) was added, and an elemental diet 3 administration group, to which sodium chloride (0.35 w/v %) was added, were compared. Each test elemental diet was administered using an electric pump via the catheter inserted into the stomach. The administration was started from 10:30 AM and intermittently administered 4 times per hr at 7 mL/hr. Each test elemental diet administered to one rat was 28 mL in total. The state of stool was observed from the start of the administration until 10:30 AM the next morning and, based on the severity of the symptom, ranked in 4 levels of 1. normal stool or no stool, 2, soft stool (shape was maintained), 3, muddy stool (no shape) and 4, watery stool.\nA method according to Example 1 was employed. […] Each test elemental diet was administered using an electric pump via the catheter inserted into the stomach.\nA method according to Example 1 was employed. Three groups of an elemental diet 1 administration group having the composition shown in a separate table as a control, an elemental diet 6 administration group, to which 0.04 w/v % (0.036 w/v % as free guanylic acid) of sodium guanylate (GMP) was added, and an elemental diet 7 administration group, to which 0.20 w/v % (0.18 w/v % as free guanylic acid) was added, were compared. Each test elemental diet was administered using an electric pump via the catheter inserted into the stomach.", "key": {"[1]": {"settings": "Example 1, elemental diet 3 with 0.35 w/v % sodium chloride, out of 11 cases"}, "[2]": {"settings": "Example 3, elemental diet 6 with 0.04 w/v % sodium guanylate, out of 13 cases"}, "[3]": {"settings": "Example 3, elemental diet 7 with 0.20 w/v % sodium guanylate, out of 13 cases"}}, "data": [{"smiles": "[Cl-].[Na+]", "note": "[sodium chloride, reference compound]", "values": [{"measurement": "rank 1 observed", "setting": "[1]", "result": 1, "unit": "case"}, {"measurement": "rank 3 observed", "setting": "[1]", "result": 6, "unit": "cases"}]}, {"smiles": "N[C@@H](CCC(=O)[O-])C(=O)[O-].[Na+].[Na+]", "note": "[sodium glutamate]", "values": [{"measurement": "improvement of diarrhea (stool rank) vs non-addition group", "setting": "Example 1, 1.0 w/v % sodium glutamate, Kruskal-Wallis, p<0.05", "result": "significant improvement effect"}, {"measurement": "rank 2 soft stool observed", "setting": "po", "result": 1, "unit": "case"}, {"measurement": "rank 3 muddy stool observed", "setting": "po", "result": 2, "unit": "cases"}]}, {"smiles": "Nc1nc2c(ncn2[C@@H]2O[C@H](COP(=O)([O-])[O-])[C@@H](O)[C@H]2O)c(=O)[nH]1.[Na+].[Na+]", "note": "[sodium guanylate]", "values": [{"measurement": "rank 1 normal stool or no stool observed", "setting": "Example 3, elemental diet 6 with 0.04 w/v % sodium guanylate (0.036 w/v % as free guanylic acid), out of 13 cases", "result": 3, "unit": "cases"}, {"measurement": "rank 2 soft stool observed", "setting": "[2]", "result": 1, "unit": "case"}, {"measurement": "rank 4 watery stool observed", "setting": "[2]", "result": 9, "unit": "cases"}, {"measurement": "rank 1 normal stool or no stool observed", "setting": "Example 3, elemental diet 7 with 0.20 w/v % sodium guanylate (0.18 w/v % as free guanylic acid), out of 13 cases", "result": 3, "unit": "cases"}, {"measurement": "rank 2 soft stool observed", "setting": "[3]", "result": 1, "unit": "case"}, {"measurement": "rank 4 watery stool observed", "setting": "[3]", "result": 9, "unit": "cases"}, {"measurement": "diarrhea symptom-improving effect by the addition", "setting": "Example 3, sodium guanylate 0.04 and 0.20 w/v % addition groups vs non-addition group", "result": "diarrhea symptom-improving effect was considered to be observed"}]}]}
